Reference: patent US20230124862A1, “BISMUTH THIOL COMPOUNDS AND COMPOSITIONS AND METHODS OF TREATING MICROBIAL CO-INFECTIONS” (Microbion Corporation, priority 2020, published 2023)
≈ marks a conversion by molar mass, not a printed value. Read-outs that look alike come from different tables or passages of the source.

Key:
B. cenocepacia = assay: MIC testing of CF isolates; format: cell-based, Burkholderia cenocepacia
Achromobacter spp. = assay: MIC testing of CF isolates; format: cell-based
Acinetobacter baumannii = assay: Broth microdilution MIC (Example 12); format: cell-based
Pseudomonas aeruginosa [1] = assay: Broth microdilution MIC (Example 12); format: cell-based
Klebsiella pneumoniae = assay: Broth microdilution MIC (Example 12); format: cell-based
M. abscessus complex = assay: MIC testing of CF isolates; format: cell-based, Mycobacterium abscessus
[2] = system: Burkholderia cepacia complex; format: cell-based, Burkholderia spp.; details: initial MIC testing
[3] = system: Burkholderia cepacia complex; assay: Checkerboard FIC/FICI assay; format: cell-based, Burkholderia spp.; details: during FIC testing
P. aeruginosa [4] = assay: MIC testing of CF isolates and control strain
S. maltophilia = assay: MIC testing of CF isolates; format: cell-based, Stenotrophomonas maltophilia; details: S. maltophilia (SM21)
P. aeruginosa [5] = details: P. aeruginosa isolate 103; CLSI QC range in parenthesis; cited from earlier work
Escherichia coli = assay: Broth microdilution MIC (Example 12); format: cell-based
Pseudomonas aeruginosa [6] = details: P. aeruginosa ATCC 27853; CLSI established QC range; cited from earlier work
B. multivorans = assay: MIC testing of CF isolates; format: cell-based, Burkholderia multivorans; details: B. multivorans (B. cepacia complex) (BC5b)
B. cepacia = assay: MIC testing of CF isolates; format: cell-based, Burkholderia cepacia; details: B. cepacia (B. cepacia complex) (BC17)
P. aeruginosa [7] = details: P. aeruginosa isolate 103; CLSI QC range in parenthesis; cited from earlier work; remark: listed apart in the source
[8] = system: DNA synthesis in E. coli ATCC 25922; details: 16X the MIC
[9] = system: cell wall synthesis in E. coli ATCC 25922; details: 8X the MIC
E. coli ATCC 25922 = assay: Broth microdilution MIC (Example 16); details: Escherichia coli
[10] = system: Gram-positive organisms (S. aureus, S. pneumoniae); assay: Broth microdilution MIC with pulmonary surfactant (Survanta); format: cell-based, Staphylococcus aureus, Streptococcus pneumoniae
[11] = system: protein synthesis in E. coli ATCC 25922; details: 8X the MIC
[12] = ATCC25922, E. coli ATCC 25922, inoculum 1
[13] = ATCC25922, E. coli ATCC 25922, inoculum 2

For `NCC[C@H](O)C(=O)N[C@@H]1C[C@H](N)[C@@H](O[C@H]2O[C@H](CN)[C@@H](O)[C@H](O)[C@H]2O)[C@H](O)[C@H]1O[C@H]1O[C@H](CO)[C@@H](O)[C@H](N)[C@H]1O` [AMK], the MIC (B. cenocepacia; B. cenocepacia (B. cepacia complex) (AU197)) was greater than 64 µg/mL, the MIC (B. cenocepacia; B. cenocepacia (B. cepacia complex) (BC15)) was greater than 64 µg/mL and the MIC (Achromobacter spp.; A. xylosoxidans (AX4)) was greater than 64 µg/mL. It also gave an MIC (Achromobacter spp.; Achromobacter spp. (AX1)) of 64 µg/mL (≈ 109 µM), an MIC (Acinetobacter baumannii; A. baumannii CDC 273, ESBL/OXA) greater than 64 µg/mL and an MIC (Acinetobacter baumannii; A. baumannii CDC 274, ESBL/OXA) of 16 µg/mL (≈ 27.3 µM). The MIC (Acinetobacter baumannii; A. baumannii CDC 275, ESBL/OXA) was greater than 64 µg/mL, the MIC (Acinetobacter baumannii; A. baumannii CDC 277, ESBL/OXA) was 16 µg/mL (≈ 27.3 µM) and the MIC (Acinetobacter baumannii; A. baumannii CDC 284, ESBL/OXA) was […]. The MIC (Acinetobacter baumannii; A. baumannii CDC 307, OXA) was greater than 64 µg/mL, the MIC (Acinetobacter baumannii; A. baumannii CDC 308, ESBL/OXA) was greater than 64 µg/mL and the MIC (Acinetobacter baumannii; A. baumannii CDC 311, OXA) was greater than 64 µg/mL. It also gave an MIC (Acinetobacter baumannii; A. baumannii CDC 312, OXA) of 1 µg/mL (≈ 1.71 µM), an MIC (Acinetobacter baumannii; A. baumannii CDC 313, ESBL/OXA) of 4 µg/mL (≈ 6.83 µM) and an MIC (Acinetobacter baumannii; A. baumannii NCTC 13304, OXA) of 0.5 µg/mL (≈ 0.854 µM). It also gave an MIC (Pseudomonas aeruginosa [1]; P. aeruginosa ATCC 27853, ATCC QC organism (Table 102)) of 2 µg/mL (≈ 3.42 µM), an MIC (Pseudomonas aeruginosa [1]; P. aeruginosa CDC 230, VIM/OXA) greater than 64 µg/mL and an MIC (Pseudomonas aeruginosa [1]; P. aeruginosa CDC 231, KPC/OXA) of 8 µg/mL (≈ 13.7 µM). It also gave an MIC (Pseudomonas aeruginosa [1]; P. aeruginosa CDC 241, IMP/OXA) of […], an MIC (Pseudomonas aeruginosa [1]; P. aeruginosa CDC 246, NDM/OXA) greater than 64 µg/mL and an MIC (Pseudomonas aeruginosa [1]; P. aeruginosa CDC 250, NDM/OXA) greater than 64 µg/mL. It also gave an MIC (Pseudomonas aeruginosa [1]; P. aeruginosa CDC 356, KPC) of 2 µg/mL (≈ 3.42 µM), an MIC (Pseudomonas aeruginosa [1]; P. aeruginosa CDC 439, IMP) greater than 64 µg/mL and an MIC (Pseudomonas aeruginosa [1]; P. aeruginosa CDC 444, VIM) greater than 64 µg/mL. It also gave an MIC (Pseudomonas aeruginosa [1]; P. aeruginosa CDC 457, VIM) of 2 µg/mL (≈ 3.42 µM), an MIC (Pseudomonas aeruginosa [1]; P. aeruginosa CDC 516, KPC/AmpC) of 2 µg/mL (≈ 3.42 µM) and an MIC (Pseudomonas aeruginosa [1]; P. aeruginosa CDC 518, KPC/AmpC) of 16 µg/mL (≈ 27.3 µM). It also gave an MIC (Klebsiella pneumoniae; K. pneumoniae ATCC BAA-1705, ATCC QC organism (Table 102)) of […], an MIC (Klebsiella pneumoniae; K. pneumoniae ATCC BAA-1705, ESBL/KPC) of […] and an MIC (Klebsiella pneumoniae; K. pneumoniae CDC 112, KPC) of […]. The MIC (Klebsiella pneumoniae; K. pneumoniae CDC 113, ESBL/KPC) was […], the MIC (Klebsiella pneumoniae; K. pneumoniae CDC 115, ESBL/KPC) was […] and the MIC (Klebsiella pneumoniae; K. pneumoniae CDC 120, ESBL/KPC) was […]. The MIC (Klebsiella pneumoniae; K. pneumoniae CDC 126, ESBL/KPC) was […], the MIC (Klebsiella pneumoniae; K. pneumoniae CDC 129, ESBL/KPC) was […] and the MIC (Klebsiella pneumoniae; K. pneumoniae CDC 135, ESBL/VIM) was […]. For the same molecule, the MIC (Klebsiella pneumoniae; K. pneumoniae CDC 138, ESBL/NDM) was […], the MIC (Klebsiella pneumoniae; K. pneumoniae CDC 158, ESBL/NDM/OXA) was […] and the MIC (Klebsiella pneumoniae; K. pneumoniae MMX 9029, ESBL) was […]. The MIC (M. abscessus complex; M. abscessus/massiliense complex (AMT0068-40)) was 32^2 μg/mL, the MIC (M. abscessus complex; M. abscessus/massiliense complex (AMT0119-7)) was 32^2 μg/mL and the MIC (M. abscessus complex; M. abscessus/massiliense complex (AMT0493-2), AMK R) was >64^2 μg/mL. For the same molecule, the MIC (M. abscessus complex; M. abscessus/massiliense complex (AMT01130-8)) was 16^2 μg/mL, the MIC (M. abscessus complex; M. abscessus/massiliense complex (AMT1539)) was 32^2 μg/mL and the MIC (M. abscessus complex; M. abscessus/massiliense complex (ATCL119977), Macrolide R (inducible)) was 8^2 μg/mL. The MIC ([2]; B. cenocepacia isolate 0548 (CIP-R)) was 256 µg/mL (≈ 437 µM), the MIC ([2]; B. cenocepacia isolate 1631) was 256 µg/mL (≈ 437 µM) and the MIC ([2]; B. cenocepacia isolate 1783) was 256 µg/mL (≈ 437 µM). For the same molecule, the MIC ([2]; B. cenocepacia isolate 8555) was 256 µg/mL (≈ 437 µM), the MIC ([2]; B. cepacia isolate 0546) was 64 µg/mL (≈ 109 µM) and the MIC ([2]; B. cepacia isolate 1793) was 64 µg/mL (≈ 109 µM). The MIC ([2]; B. cepacia isolate 9040) was 8 µg/mL (≈ 13.7 µM), the MIC ([2]; B. multivorans isolate 5665 (CIP-I)) was 256 µg/mL (≈ 437 µM) and the MIC ([2]; B. multivorans isolate 8952 (CIP-I)) was 64 µg/mL (≈ 109 µM). The MIC ([3]; B. cepacia isolate 0546) was […], the MIC ([3]; B. cepacia isolate 1793) was […] and the MIC (P. aeruginosa [4]) was greater than 64 µg/mL. The MIC (P. aeruginosa [4]; P. aeruginosa (AGR1), CF isolate) was 16 µg/mL (≈ 27.3 µM), the MIC (S. maltophilia) was 64 µg/mL (≈ 109 µM) and the “CLSI QC range of MIC” value (P. aeruginosa [5]) was “(1-4) μg/mL”. It also gave an MIC (Escherichia coli; E. coli ATCC 25922, ATCC QC organism (Table 102)) of 1 µg/mL (≈ 1.71 µM), an MIC (Escherichia coli; E. coli ATCC 35218, ATCC QC organism (Table 102)) of 1 µg/mL (≈ 1.71 µM) and an MIC (Escherichia coli; E. coli ATCC 35218, ESBL) of 1 µg/mL (≈ 1.71 µM). The MIC (Escherichia coli; E. coli ATCC BAA-2471, NDM) was 64 µg/mL (≈ 109 µM), the MIC (Escherichia coli; E. coli CDC 114, ESBL/KPC) was 1 µg/mL (≈ 1.71 µM) and the MIC (Escherichia coli; E. coli CDC 118, ESBL/NDM) was greater than 64 µg/mL. For the same molecule, the MIC (Escherichia coli; E. coli CDC 435, NDM) was greater than 64 µg/mL, the MIC (Escherichia coli; E. coli CDC 451, KPC) was 4 µg/mL (≈ 6.83 µM) and the MIC (Escherichia coli; E. coli CDC 503, ESBL/NDM) was greater than 64 µg/mL. The MIC (Escherichia coli; E. coli MMX 5745, KPC) was 0.5 µg/mL (≈ 0.854 µM), the MIC (Escherichia coli; E. coli MMX 5755, ESBL) was 16 µg/mL (≈ 27.3 µM) and the MIC (Escherichia coli; E. coli MMX 5756, ESBL) was 64 µg/mL (≈ 109 µM). For the same molecule, the MIC (Escherichia coli; E. coli MMX 5758, ESBL) was 1 µg/mL (≈ 1.71 µM), the “QC range of MIC” value (Pseudomonas aeruginosa [6]) was “(1-4) μg/mL” and the MIC (B. multivorans) was greater than 64 µg/mL. The MIC (B. cepacia) was greater than 64 µg/mL and the “CLSI QC range of MIC” value (P. aeruginosa [7]) was “(1-4) μg/mL”.

With `O=C(O)c1cn(C2CC2)c2cc(N3CCNCC3)c(F)cc2c1=O` [ciprofloxacin] the “inhibition of DNA synthesis” value [8] was 89.6%.

For `C[C@@H](O)[C@H]1C(=O)N2C(C(=O)O)=C(SCCN=CN)C[C@H]12` [imipenem], the “inhibition of cell wall synthesis” value [9] was 78.8%, the MIC (E. coli ATCC 25922; ATCC25922) was 0.12 µg/mL (≈ 0.401 µM) and the MIC (E. coli ATCC 25922; [12]) was 0.12 µg/mL (≈ 0.401 µM). It also gave an MIC (E. coli ATCC 25922; [13]) of 0.12 µg/mL (≈ 0.401 µM), an MIC ([10]; S. pneumoniae ATCC 49619, 0 percent Survanta) of no more than 0.015 µg/mL and an MIC ([10]; S. pneumoniae ATCC 49619, 1 percent Survanta) of 0.03 µg/mL (≈ 0.1 µM). The MIC ([10]; S. pneumoniae ATCC 49619, 2.5 percent Survanta) was 0.03 µg/mL (≈ 0.1 µM), the MIC ([10]; S. pneumoniae MMX 3162, 0 percent Survanta) was 0.25 µg/mL (≈ 0.835 µM) and the MIC ([10]; S. pneumoniae MMX 3162, 1 percent Survanta) was 0.25 µg/mL (≈ 0.835 µM). For the same molecule, the MIC ([10]; S. pneumoniae MMX 3162, 2.5 percent Survanta) was 0.25 µg/mL (≈ 0.835 µM), the MIC ([10]; S. pneumoniae MMX 3162, 5 percent Survanta) was 0.25 µg/mL (≈ 0.835 µM) and the MIC ([10]; Staphylococcus aureus, ATCC29213, S. aureus ATCC 29213, 0 percent Survanta) was no more than 0.015 µg/mL. For the same molecule, the MIC ([10]; Staphylococcus aureus, ATCC29213, S. aureus ATCC 29213, 1 percent Survanta) was no more than 0.015 µg/mL, the MIC ([10]; Staphylococcus aureus, ATCC29213, S. aureus ATCC 29213, 2.5 percent Survanta) was no more than 0.015 µg/mL and the MIC ([10]; Staphylococcus aureus, ATCC29213, S. aureus ATCC 29213, 5 percent Survanta) was no more than 0.015 µg/mL. The MIC ([10]; Staphylococcus aureus, ATCC29213, S. aureus ATCC 29213, 10 percent Survanta) was no more than 0.015 µg/mL and the MIC ([10]; Staphylococcus aureus, ATCC43300, S. aureus ATCC 43300, 0 percent Survanta) was 0.5 µg/mL (≈ 1.67 µM).

In the case of `CN(C)[C@@H]1C(O)=C(C(N)=O)C(=O)[C@@]2(O)C(O)=C3C(=O)c4c(O)cccc4[C@@](C)(O)[C@H]3C[C@@H]12` [tetracycline], the “inhibition of protein synthesis” value [11] is reported as 93.8%, the MIC (E. coli ATCC 25922; ATCC25922) is reported as 1 µg/mL (≈ 2.25 µM) and the MIC (E. coli ATCC 25922; [12]) is reported as 1 µg/mL (≈ 2.25 µM). It also gave an MIC (E. coli ATCC 25922; [13]) of 1 µg/mL (≈ 2.25 µM).
